Test results from ChEMBL document CHEMBL1201862, “PubChem BioAssay data set” (2004).
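Each compound was tested at five concentrations against cells in 96-well plates for 48 hours. Abbreviation: GI50, concentration required for 50% inhibition of growth.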 The source made the active and inactive calls. Rule as the data show it: active = GI50 up to about 1.1 µM and inactive = higher.

Legend:
Assay in all cases: growth of human tumour cells (NCI), 48 h
ACHN = test system: ACHN
CAKI-1 = test system: CAKI-1
EKVX = test system: EKVX
HCT-116 = test system: HCT-116
HCT-15 = test system: HCT-15
HOP-62 = test system: HOP-62
HT-29 = test system: HT-29
K562 = test system: K562
KM12 = test system: KM12
Malme-3M = test system: Malme-3M
OVCAR-3 = test system: OVCAR-3
OVCAR-5 = test system: OVCAR-5
OVCAR-8 = test system: OVCAR-8
SF-268 = test system: SF-268
SK-MEL-28 = test system: SK-MEL-28
SK-MEL-5 = test system: SK-MEL-5
SK-OV-3 = test system: SK-OV-3
SN12C = test system: SN12C
UACC-62 = test system: UACC-62

Compound | GI50 (ACHN) | GI50 (CAKI-1) | GI50 (EKVX) | GI50 (HCT-116) | GI50 (HCT-15) [µM] | GI50 (HOP-62) | GI50 (HT-29) | GI50 (K562) | GI50 (KM12) | GI50 (Malme-3M) | GI50 (OVCAR-3) | GI50 (OVCAR-5) | GI50 (OVCAR-8) | GI50 (SF-268) | GI50 (SK-MEL-28) | GI50 (SK-MEL-5) | GI50 (SK-OV-3) | GI50 (SN12C) | GI50 (UACC-62)
O=c1c(F)cn2c(=O)n1CCCCCCCn1c(=O)c(F)cn(c1=O)CCCCCCC2 | > 100 µM (inactive) | 78.3 µM (inactive) | > 100 µM (inactive) | 73.5 µM (inactive) | > 100 | 46.6 µM (inactive) | 50.4 µM (inactive) | > 100 µM (inactive) | 73.1 µM (inactive) | 35.7 µM (inactive) | 61.7 µM (inactive) | > 100 µM (inactive) | 59.4 µM (inactive) | 0.59 µM (active) | 3.13 µM (inactive) | 39.9 µM (inactive) | > 100 µM (inactive) | > 100 µM (inactive) | 60.5 µM (inactive)
COc1ccc(N[C@H](C[S+]([O-])c2ccc(C)cc2)C(F)(F)F)cc1 (some centres not stated) | > 100 µM (inactive) | > 100 µM (inactive) | > 100 µM (inactive) | > 100 µM (inactive) | > 100 |  | > 100 µM (inactive) | > 100 µM (inactive) | > 100 µM (inactive) | > 100 µM (inactive) | > 100 µM (inactive) | > 100 µM (inactive) | > 100 µM (inactive) |  | > 100 µM (inactive) | > 100 µM (inactive) | > 100 µM (inactive) | > 100 µM (inactive) | > 100 µM (inactive)
N/N=C(/CC(O)(C(F)(F)F)C(F)(F)F)c1ccccc1 | > 10 µM (inactive) | > 10 µM (inactive) | > 10 µM (inactive) | > 10 µM (inactive) | > 10 | > 10 µM (inactive) | > 10 µM (inactive) | > 10 µM (inactive) | > 10 µM (inactive) | > 10 µM (inactive) | 7.4 µM (inactive) | > 10 µM (inactive) | > 10 µM (inactive) | > 10 µM (inactive) | > 10 µM (inactive) | > 10 µM (inactive) | > 10 µM (inactive) | > 10 µM (inactive) | > 10 µM (inactive)
Clc1cccc(Cl)c1/C=N/C12CC3CC(CC(C3)C1)C2 | > 10 µM (inactive) | > 10 µM (inactive) | > 10 µM (inactive) | > 10 µM (inactive) | > 10 | > 10 µM (inactive) | > 10 µM (inactive) | > 10 µM (inactive) | > 10 µM (inactive) | > 10 µM (inactive) | > 10 µM (inactive) | > 10 µM (inactive) | > 10 µM (inactive) | > 10 µM (inactive) | > 10 µM (inactive) | > 10 µM (inactive) | > 10 µM (inactive) | > 10 µM (inactive) | > 10 µM (inactive)
COc1ccccc1NC(=S)N/N=C(/c1ccccc1)c1ccccn1 | 0.0257 µM (active) | < 0.0421 µM (active) | 0.0968 µM (active) | < 0.0147 µM (active) | 0.045 | 0.251 µM (active) | 0.0101 µM (active) | < 0.0128 µM (active) | 0.151 µM (active) | 0.167 µM (active) | < 0.0143 µM (active) | 0.0635 µM (active) | 0.0627 µM (active) | 0.144 µM (active) | 1.39 µM (inactive) | 0.0904 µM (active) | 0.0771 µM (active) | 0.685 µM (active) | 0.273 µM (active)
CCOc1cc2c(cc1OC(C)=O)C(=O)CC[C@H]1C3CC[C@H](OC(C)=O)[C@@]3(C)CC[C@H]21 (some centres not stated) | > 100 µM (inactive) | > 100 µM (inactive) | > 100 µM (inactive) | > 100 µM (inactive) | > 100 | > 100 µM (inactive) | > 100 µM (inactive) | > 100 µM (inactive) | > 100 µM (inactive) | > 100 µM (inactive) | > 100 µM (inactive) | > 100 µM (inactive) | > 100 µM (inactive) | > 100 µM (inactive) | > 100 µM (inactive) | > 100 µM (inactive) | > 100 µM (inactive) |  | > 100 µM (inactive)
OC(c1ccccc1)c1c(-c2ccccc2)oc(-c2ccccc2)c1C(O)c1ccccc1 (configuration not stated) | 6.14 µM (inactive) | 15.2 µM (inactive) | 5.75 µM (inactive) | 5.65 µM (inactive) | 12.1 | 14.4 µM (inactive) | 11.1 µM (inactive) | 3.58 µM (inactive) | 7.24 µM (inactive) | 12.3 µM (inactive) | 5.73 µM (inactive) | 15.6 µM (inactive) |  | 12 µM (inactive) | 14.2 µM (inactive) | 11.4 µM (inactive) | 14.7 µM (inactive) | 6.22 µM (inactive) | 11.2 µM (inactive)
CC(=O)N(CCc1ccccc1)C(C#N)c1ccc(OCCCCCCCCCCOc2ccc(C(C#N)N(CCc3ccccc3)C(C)=O)cc2)cc1 (configuration not stated) | 66.4 µM (inactive) | 97.3 µM (inactive) | 36.5 µM (inactive) | > 100 µM (inactive) | 99.1 |  | > 100 µM (inactive) | > 100 µM (inactive) | > 100 µM (inactive) | > 100 µM (inactive) | > 100 µM (inactive) | > 100 µM (inactive) | 23 µM (inactive) | 21.7 µM (inactive) | > 100 µM (inactive) | > 100 µM (inactive) | 22.9 µM (inactive) | > 100 µM (inactive) | 62.1 µM (inactive)
Sc1nn2c(COc3cccc(OCc4nnc5sc(S)nn45)c3)nnc2s1 | > 100 µM (inactive) | > 100 µM (inactive) | > 100 µM (inactive) | > 100 µM (inactive) | 52.8 | > 100 µM (inactive) | 62.5 µM (inactive) | 7.89 µM (inactive) | > 100 µM (inactive) | > 100 µM (inactive) | > 100 µM (inactive) | > 100 µM (inactive) | > 100 µM (inactive) | > 100 µM (inactive) | > 100 µM (inactive) |  | > 100 µM (inactive) | > 100 µM (inactive) | > 100 µM (inactive)
O=C(/C=C/c1ccc(O)c(O)c1)OCc1ccccc1 [BENZYL CAFFEATE] | 11.8 µM (inactive) | 27 µM (inactive) | 29.7 µM (inactive) | 13.4 µM (inactive) | 5.4 | 25.6 µM (inactive) | 32.3 µM (inactive) | 9.84 µM (inactive) | 8.45 µM (inactive) | 11.8 µM (inactive) | 11 µM (inactive) | 29.5 µM (inactive) |  | 10.9 µM (inactive) | 6.37 µM (inactive) | 9.73 µM (inactive) | 18.3 µM (inactive) | 11.6 µM (inactive) | 6.58 µM (inactive)
CN(CCNC(=O)c1nn(-c2ccccc2)c2c1ccc1ccccc12)CCNC(=O)c1nn(-c2ccccc2)c2c1ccc1ccccc12 | 2.11 µM (inactive) | 3.33 µM (inactive) | 1.98 µM (inactive) | 1.53 µM (inactive) | 1.76 | 1.43 µM (inactive) | 2.94 µM (inactive) |  | 2.37 µM (inactive) | 2.23 µM (inactive) | 1.71 µM (inactive) | 4.49 µM (inactive) | 1.79 µM (inactive) | 2.38 µM (inactive) | 1.7 µM (inactive) | 1.64 µM (inactive) | 2.09 µM (inactive) | 1.88 µM (inactive) | 1.77 µM (inactive)
CC(=O)Oc1ccc2c(c1)CC[C@@H]1C2[C@@H](O[N+](=O)[O-])C[C@@]2(C)C1CC[C@@H]2O[N+](=O)[O-] (some centres not stated) | 8.69 µM (inactive) | 19.3 µM (inactive) | 12.3 µM (inactive) | 10.2 µM (inactive) | 13.3 | 6.82 µM (inactive) | 16.4 µM (inactive) | 6.5 µM (inactive) | 14.1 µM (inactive) | 13.7 µM (inactive) | 13.2 µM (inactive) | 19.4 µM (inactive) | 14.6 µM (inactive) | 13.3 µM (inactive) | 14.5 µM (inactive) | 9.75 µM (inactive) |  | 15.5 µM (inactive) | 13.9 µM (inactive)
ClCCN1CCC2(CC1)SSC1(CCN(CCCl)CC1)S2 | 40.5 µM (inactive) | 11.9 µM (inactive) |  | 45.9 µM (inactive) | 36.2 | > 100 µM (inactive) | 48 µM (inactive) | 37.8 µM (inactive) | > 100 µM (inactive) | 29.2 µM (inactive) | 19.7 µM (inactive) | 29.6 µM (inactive) | > 100 µM (inactive) | 10.8 µM (inactive) | > 100 µM (inactive) | 42.4 µM (inactive) | 30.6 µM (inactive) | 26.2 µM (inactive) | 20.8 µM (inactive)
Clc1ccc(/C=N/c2ccc(Oc3ccc(Cl)cc3)c(Cl)c2)cc1 | 34.1 µM (inactive) | 6.41 µM (inactive) | 27.8 µM (inactive) | 17.9 µM (inactive) | 21.8 | 19.4 µM (inactive) | 23.7 µM (inactive) |  | 24.8 µM (inactive) | 20.2 µM (inactive) | 16.9 µM (inactive) | > 100 µM (inactive) | 29.4 µM (inactive) | 17.5 µM (inactive) | 23.6 µM (inactive) | 22.3 µM (inactive) | 27 µM (inactive) | 19.5 µM (inactive) | 19.8 µM (inactive)
Nn1c(SCC(=O)O)nc2ccccc2c1=O | > 100 µM (inactive) | > 100 µM (inactive) | > 100 µM (inactive) | > 100 µM (inactive) | > 100 |  | > 100 µM (inactive) | > 100 µM (inactive) | > 100 µM (inactive) | > 100 µM (inactive) | > 100 µM (inactive) | > 100 µM (inactive) | > 100 µM (inactive) | > 100 µM (inactive) | > 100 µM (inactive) | > 100 µM (inactive) |  | > 100 µM (inactive) | > 100 µM (inactive)
